In patent US11352394B2, “Cyclic cell penetrating peptides comprising beta-hairpin motifs and methods of making and using thereof” (Ohio State Innovation Foundation, priority 2016, dated 2022):
“Also recorded” adds a separate entry of the source. Square brackets hold non-standard residues; d marks the D form. Peptide text beside a SMILES is read from it. pY = N[C@@H](Cc1ccc(OP(=O)(O)O)cc1)C(=O)O; 2Nal = N[C@@H](Cc1ccc2ccccc2c1)C(=O)O

What was measured:
[1] = molecular target: Keap1-Nrf2 interaction (Homo sapiens, UniProt Q14145); experiment: Fluorescence anisotropy-based competition assay, inhibition of Keap1-Nrf2 peptide interaction; format: binding; settings: for IC50: FA competition with fluorescently labeled Nrf2 peptide and Keap1; for Decrease of affinity for Keap1 / inhibition potency: Asn-Ala analogues vs Asp-Pro parents (BH13, BH15, BH17), BH19: truncation of cargo to 6-aa
Experimental: The percentage of inhibition was calculated from the fluorescence anisotropy decrease by using equation % Inhibition=(FAmax−FAobs)/(FAmax−FAmin)×100% and plotted against the inhibitor concentration.

[2] = test system: HO-1 protein (Keap1-Nrf2-ARE pathway), HEK293 cells; experiment: Anti-HO1 immunoblot of HO-1 protein level in HEK293 cells; format: cell-based, human
Experimental: FIG. 5 is an image from a Western blot analysis of HO-1 protein levels in HEK293 cells untreated or after treatment with SFN (10 μM) or a cyclic β-hairpin peptide (40 μM).
FIG. 8 is a western blot showing the effect of peptide BH15 on the protein level of HO-1, a protein downstream of the Keap1-Nrf2-ARE pathway. SFN, a small-molecule positive control; blank, no inhibitor.
The cellular activity of Keap1-Nrf2 inhibitors BH13-18 was assessed by examining their effects on the expression levels of HO-1 protein, by anti-HO1 immunoblot analysis. HO-1 is an antioxidant enzyme under the transcriptional control of Nrf2 binding to the ARE, and disruption of the Keap1-Nrf2 interaction is expected to increase the protein level of HO-1.
(§1) BH15 enters human cells, binds and inhibits the function of Keap1 (which promotes the ubiquitination and degradation of Nrf2), resulting in increased intracellular levels of Nrf2, a transcription factor. […] This in turn results in the increased levels of HO-1, a protein whose expression is controlled by Nrf2.

[3] = test system: Nrf2 protein level, HEK293 cells; experiment: Western blot of Nrf2 protein level in cytoplasm and nucleus of HEK293 cells; format: cell-based, human; settings: varying doses
Description: The cellular activity of Keap1-Nrf2 Inhibitor BH15 was characterized, and it was observed that BH15 is biologically active in cell-based assays. Varying doses of BH15 were provided to HEK293 cells in culture. After a period of time, the cells were lysed, and cytosolic fractions were separated from nuclear fractions.
as §1

[4] = molecular target: Grb2 SH2 domain (Homo sapiens, UniProt P62993); experiment: FP-based competition assay with FAM-labeled reporter ligand for Grb2 SH2 domain; format: binding
Experimental: FIG. 10(a) is the structure of a Grb2 SH2 ligand. […] This ligand was used as reporter ligand in FA/FP-based competition assays to determine the binding affinities of new Grb2 SH2 domain ligands.
(§2) The binding affinity of BH23 (unlabeled) for the Grb2 SH2 domain was then determined by examining its ability to compete with the FAM-labeled ligand for binding to the Grb2 SH2 domain by fluorescence polarization (FP). […] Next, BH23 was labeled with NF at the Asn side chain through a miniPEG-Lys linker and its cytosolic entry efficiency was quantitated by treating HeLa cells with 5 μM of the labeled peptide for 2 h before flow cytometry analysis. […] BH23 was also similarly labeled at the Asn side chain with FAM and its entry into HeLa cells was examined by live-cell confocal microscopy. […] Two control peptides (BH24 and BH25) were also prepared for cellular assays. BH24 and BH25 are structurally similar to BH23, except that BH24 contained a Tyr instead of the pY residue (FIG. 11), whereas in BH25 the two hydrophobic residues critical for cellular uptake (Nal-arg) were replaced with Ala-ala (FIG. 12).

[5] = test system: Grb2/Ras signaling pathway, MDA-MB-468 breast cancer cells; experiment: Western blot of MEK and ERK1/2 phosphorylation in EGF-stimulated MDA-MB-468 cells; format: cell-based; settings: peptide 2 h, EGF 50 ng/mL 10 min
Experimental: FIG. 13 provides western blots depicting the effect of peptides BH23, BH24, and BH25 on the Grb2/Ras signaling pathway. MDA-MB-468 cells were treated with the indicated concentrations of peptide BH23 (a) or control peptides BH24 and BH25 (b) for 2 h and stimulated with EGF (50 ng/mL) for 10 min. The cells were then lysed and the cell lysates were separated on SDS-PAGE and blotted with antibodies specific for phosphorylated and total kinases in the Ras signaling pathway. Glyceraldehyde 3-phosphate dehydrogenase (GAPDH) was used as the loading control. […] Inhibition of ERK1/2 phosphorylation was less dramatic, as expected from its further downstream position on the Grb2/Ras signaling pathway.
FIG. 14(a) is the structure of BH26. FIG. 14(b) provides western blots showing the effect of peptides BH23 and BH26 on the Grb2/Ras signaling pathway. MDA-MB-468 cells were treated with the indicated concentrations of BH23 or BH26 for 2 h and stimulated with EGF (50 ng/mL) for 10 min. The cells were then lysed and the cell lysates were separated on SDS-PAGE and blotted with antibodies specific for phosphorylated and total kinases in the Ras signaling pathway.
BH23 and BH24 were tested for their ability to inhibit the Grb2/Ras signaling pathways, by monitoring the phosphorylation of MEK and ERK1/2 kinases downstream of Ras.

[6] = test system: HeLa cells; experiment: Cellular (cytosolic) uptake of NF-labeled peptides by flow cytometry (MFI); format: cell-based; settings: HeLa cells, flow cytometry
Experimental: HeLa cells were treated with 5 μM peptide for 2 h, and their cell uptake efficiencies were determined by flow cytometry analysis. The mean fluorescence intensity (MFI) values derived from cytometry analyses reflect the amounts of peptides inside the cytosol and nucleus, whereas any NF-labeled peptide entrapped inside the acidic endosomes are invisible under the experimental conditions (Id.; Qian, Z et al. Chem. Commun. 2015, 51, 2162-2165).
as §2
BHT1 and BHT2 were labeled with naphthofluorescein (NF) and their cytosolic uptake into HeLa cells was determined by flow cytometry (Table 10).
Additional cell penetrating compounds were prepared and tested for cytosolic delivery. In these compounds there was no beta-hairpin turn creating moiety.

[7] = test system: mammalian cells; settings: Qian et al. 2013; cited from earlier work
[8] = LaRochelle et al. 2015; cited from earlier work

Sequence of Keap1-Nrf2 interaction (Q14145 321-609 limits assumed): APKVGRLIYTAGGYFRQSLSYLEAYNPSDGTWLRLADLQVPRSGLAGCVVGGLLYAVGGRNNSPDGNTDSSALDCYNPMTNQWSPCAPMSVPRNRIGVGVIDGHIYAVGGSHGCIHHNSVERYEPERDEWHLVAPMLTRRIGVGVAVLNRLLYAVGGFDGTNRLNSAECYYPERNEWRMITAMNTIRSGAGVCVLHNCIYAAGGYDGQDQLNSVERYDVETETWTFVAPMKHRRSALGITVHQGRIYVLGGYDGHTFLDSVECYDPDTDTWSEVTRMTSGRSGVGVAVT
Sequence of Grb2 SH2 domain (P62993 60-152 limits assumed): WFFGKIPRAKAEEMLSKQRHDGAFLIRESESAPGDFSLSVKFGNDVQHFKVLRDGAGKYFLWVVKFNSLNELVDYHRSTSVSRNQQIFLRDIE

CC(C)C[C@@H]1NC(=O)[C@H](Cc2ccccc2)NC(=O)[C@H](CCCNC(=N)N)NC(=O)[C@H](CCCNC(=N)N)NC(=O)[C@@H]2CCCN2C(=O)[C@H]2CCCN2C(=O)[C@@H](CCCNC(=N)N)NC(=O)[C@H](Cc2ccc3ccccc3c2)NC(=O)[C@H](Cc2ccccc2)NC(=O)[C@H](Cc2ccccc2)NC(=O)[C@H](CCC(=O)O)NC(=O)CNC(=O)[C@H]([C@@H](C)O)NC(=O)[C@H](CCC(=O)O)NC(=O)[C@@H]2CCCN2C(=O)[C@H](CC(=O)O)NC1=O [BH15, cyclo(F-F-Φ-r-p-P-R-R-F-L-D-P-E-T-G-E)]
IC50 [1]: ~160 nM | HO-1 level, dose response ([2]; varying doses): dose-dependently increased | Nrf2 levels in cytosolic and nuclear fractions [3]: dose-dependently increased

CC(C)C[C@@H]1NC(=O)[C@H](Cc2ccccc2)NC(=O)[C@H](CCCNC(=N)N)NC(=O)[C@H](CCCNC(=N)N)NC(=O)[C@@H]2CCCN2C(=O)[C@H]2CCCN2C(=O)[C@@H](CCCNC(=N)N)NC(=O)[C@H](Cc2ccc3ccccc3c2)NC(=O)[C@H](Cc2ccccc2)NC(=O)[C@H](CCC(=O)O)NC(=O)CNC(=O)[C@H]([C@@H](C)O)NC(=O)[C@H](CCC(=O)O)NC(=O)[C@H](C)NC(=O)[C@H](CC(N)=O)NC1=O [BH18, cyclo(F-Φ-r-p-P-R-R-F-L-N-A-E-T-G-E)] (cyclo(F[2Nal][dR][dP]PRRFLNAETGE))
Decrease of affinity for Keap1 / inhibition potency [1]: ~10 fold | IC50 [1]: 1400 ± 150 nM

C[C@@H]1NC(=O)[C@H](CC(N)=O)NC(=O)[C@H](Cc2ccccc2)NC(=O)[C@H](CCCNC(=N)N)NC(=O)[C@H](CCCNC(=N)N)NC(=O)[C@@H]2CCCN2C(=O)[C@H]2CCCN2C(=O)[C@@H](CCCNC(=N)N)NC(=O)[C@H](Cc2ccc3ccccc3c2)NC(=O)[C@H](Cc2ccccc2)NC(=O)[C@H](CCC(=O)O)NC(=O)CNC(=O)[C@H]([C@@H](C)O)NC(=O)[C@H](CCC(=O)O)NC1=O [BH19, cyclo(F-Φ-r-p-P-R-R-F-N-A-E-T-G-E)] (cyclo(F[2Nal][dR][dP]PRRFNAETGE))
Decrease of affinity for Keap1 / inhibition potency [1]: 34 fold

CC(C)[C@@H]1NC(=O)[C@H](Cc2ccc(O)cc2)NC(=O)[C@H](CCCNC(=N)N)NC(=O)[C@H](CCCNC(=N)N)NC(=O)[C@@H]2CCCN2C(=O)[C@H]2CCCN2C(=O)[C@@H](CCCNC(=N)N)NC(=O)[C@H](Cc2ccc3ccccc3c2)NC(=O)[C@H](Cc2ccccc2)NC(=O)[C@H](CC(N)=O)NC1=O [BH24, cyclo[F-Φ-r-p-P-R-R-Y-V-N)] (cyclo(YVNF[2Nal][dR][dP]PRR))
Binding to the Grb2 SH2 domain (in words) ([4]; competition with fluorescently labeled reporter ligand): no detectable binding; also recorded: inability to compete | IC50 ([4]; unlabeled peptide, FP-based competition with FAM-labeled ligand, read-out: IC50 Value, binding to Grb2 SH2 domain): > 10000 nM | Phosphorylation of MEK [5]: did not decrease and not

CC(C)[C@@H]1NC(=O)[C@H](Cc2ccc(OP(=O)(O)O)cc2)NC(=O)[C@H](CCCNC(=N)N)NC(=O)[C@H](CCCNC(=N)N)NC(=O)[C@@H]2CCCN2C(=O)[C@H]2CCCN2C(=O)[C@@H](C)NC(=O)[C@H](C)NC(=O)[C@H](Cc2ccccc2)NC(=O)[C@H](CC(N)=O)NC1=O [BH25, cyclo[F-A-a-p-P-R-R-pY-V-N)] (cyclo([pY]VNFA[dA][dP]PRR))
Cellular entry / delivery efficiency (in words) [6]: poor cellular uptake | Phosphorylation of MEK [5]: did not decrease and not

C[S+]([O-])CCCCN=C=S (stereo not shown) [SFN, Sulforaphane, reference compound]
HO-1 level (positive control) ([2]; 10 μM): increased

cyclo(F-Φ-R-R-R-R-Q)-miniPEG-K(NF) (cyclo(F[2Nal]RRRRQ); not fully specified (residue 7); printed as cyclo(F-Φ-R-R-R-R-Q)-miniPEG-K(NF)) [CPP1, reference compound]
Cellular Uptake (MFINF, %) ([6]; 5 μM NF-labeled peptide, 2 h, relative to CPP1 (100%)): 100% | Cellular Uptake (MFI^NF, %) of Keap1-Nrf2 inhibitors ([6]; NF-labeled peptide, relative to CPP1 (100%)): 100% | Efficiency of entry into cytoplasm and nucleus, fold higher than nonaarginine (R9) [7]: 2-5 fold

nonaarginine (RRRRRRRRR) [Peptide R9]
Cytosolic delivery efficiency (ratio of cytosolic over extracellular cargo concentrations) [8]: 4.4%
